Results taken from US4871745A, “2- or 3-aryl substituted imidazo(1,2-A)pyridines and their use as antisecretory agents” (Ortho Pharmaceutical Corporation, priority 1988, dated 1989).

Key:
[1] = tested on: calcium dependent smooth muscle contraction (trachealis muscle tissue); assay: Inhibition of calcium dependent smooth muscle contraction (tracheal rings, KCl challenge); assay type: cell-based, dogs; conditions: Canis lupus familiaris, 10 μM test compound for 10 min, dog tracheal rings, 30 min, 37° C.
Protocol: (§1) The calcium channel blocking activity of the above compounds was determined by measuring (A) the inhibition of calcium dependent smooth muscle contraction and (B) inhibition of nitrendipine binding as follows.
(A) Trachea from dogs sacrificed by excess KCl injection were stored overnight at 4° C. in oxygenated Krebs-Henseleit buffer. Tracheal rings, one cartilage segment wide (5-10 mm) were cut starting from the bronchial end. After cutting the cartilage, the trachealis muscle tissue was suspended in oxygenated Krebs-Henseleit buffer at 37° C. in a 25 ml tissue bath. After a 60 minute equilibration period, the tissues were challenged with 10 μM carbachol. After five minutes, the tissues were rinsed and allowed to rest 50 minutes. The tissues were then challened with 50 mM KCl and, after 30 minutes, the contracts were quantitated. The tissues were then rinsed and re-equilibrated for 50 minutes. Test compounds were then added at 10 μM for 10 minutes, and the tissues were rechallenged with 40 mM KCl.
The percent inhibition of smooth muscle contraction was calculated from response data before and after drug treatment. [formula]

[2] = tested on: gastric acid secretion; assay: Antisecretory activity: gastric acid secretion in pylorus-ligated rats; assay type: in vivo, male Charles River Sprague Dawley derived rats; conditions: Rattus norvegicus, intraduodenal or s.c., 4 h after ligation, acid output compared to control, read-out: % Acid Secreted
Protocol: The antisecretory activity of the above compounds was determined by measuring gastric acid secretion using pylorus ligation in a modification of the procedure of Shay et al., Gastroenterology 26, 906 (1954). Basically, male Charles River Sprague Dawley derived rats weighing 150-300 grams were deprived of food but not water for 18-24 hours prior to use. Water was withheld during the experiment, however. The rats were weighed, anesthesized with ether and the pylorus ligated according to the method of Shay et al., supra. Treatment or vehicle control was then administered intraduodenally (i.d.) or subcutaneously (s.c.). Rats were housed two/cage and sacrificed with CO2 four hours after ligation. The stomachs were removed, rinsed, and contents emptied into a graduated centrifuge tube. The tubes were centrifuged, the volume of gastric juice recorded, and any samples obviously contamined by feces, food or blood were eliminated. A 1 ml aliquot of gastric juice was titrated with 0.1N NaOH to a pH of 7.0-7.4. The volume of gastric juice secreted, the acid concentration, and the product of the volume times the concentration, i.e., the total amount of acid secreted, were measured.

[3] = molecular target: T1, calcium channel (nitrendipine binding) (Oryctolagus cuniculus, UniProt P15381); assay: Inhibition of 3H-nitrendipine binding (heart membranes), calcium channel blocking activity; set-up: species or system female New Zealand white rabbits; conditions: 3H-nitrendipine 0.05-0.50 nM; rabbit heart membranes; 90 min at 4° C.; pH 7.4; read-out: B: IC50 (inhibition of nitrendipine binding)
T1 construct: the heart was immediately removed, cleaned and chopped into small pieces; from tissue; host or cells: rabbit heart, crude membrane pellet (42,000×g)
T1 sequence (P15381 whole entry, other chains not shown): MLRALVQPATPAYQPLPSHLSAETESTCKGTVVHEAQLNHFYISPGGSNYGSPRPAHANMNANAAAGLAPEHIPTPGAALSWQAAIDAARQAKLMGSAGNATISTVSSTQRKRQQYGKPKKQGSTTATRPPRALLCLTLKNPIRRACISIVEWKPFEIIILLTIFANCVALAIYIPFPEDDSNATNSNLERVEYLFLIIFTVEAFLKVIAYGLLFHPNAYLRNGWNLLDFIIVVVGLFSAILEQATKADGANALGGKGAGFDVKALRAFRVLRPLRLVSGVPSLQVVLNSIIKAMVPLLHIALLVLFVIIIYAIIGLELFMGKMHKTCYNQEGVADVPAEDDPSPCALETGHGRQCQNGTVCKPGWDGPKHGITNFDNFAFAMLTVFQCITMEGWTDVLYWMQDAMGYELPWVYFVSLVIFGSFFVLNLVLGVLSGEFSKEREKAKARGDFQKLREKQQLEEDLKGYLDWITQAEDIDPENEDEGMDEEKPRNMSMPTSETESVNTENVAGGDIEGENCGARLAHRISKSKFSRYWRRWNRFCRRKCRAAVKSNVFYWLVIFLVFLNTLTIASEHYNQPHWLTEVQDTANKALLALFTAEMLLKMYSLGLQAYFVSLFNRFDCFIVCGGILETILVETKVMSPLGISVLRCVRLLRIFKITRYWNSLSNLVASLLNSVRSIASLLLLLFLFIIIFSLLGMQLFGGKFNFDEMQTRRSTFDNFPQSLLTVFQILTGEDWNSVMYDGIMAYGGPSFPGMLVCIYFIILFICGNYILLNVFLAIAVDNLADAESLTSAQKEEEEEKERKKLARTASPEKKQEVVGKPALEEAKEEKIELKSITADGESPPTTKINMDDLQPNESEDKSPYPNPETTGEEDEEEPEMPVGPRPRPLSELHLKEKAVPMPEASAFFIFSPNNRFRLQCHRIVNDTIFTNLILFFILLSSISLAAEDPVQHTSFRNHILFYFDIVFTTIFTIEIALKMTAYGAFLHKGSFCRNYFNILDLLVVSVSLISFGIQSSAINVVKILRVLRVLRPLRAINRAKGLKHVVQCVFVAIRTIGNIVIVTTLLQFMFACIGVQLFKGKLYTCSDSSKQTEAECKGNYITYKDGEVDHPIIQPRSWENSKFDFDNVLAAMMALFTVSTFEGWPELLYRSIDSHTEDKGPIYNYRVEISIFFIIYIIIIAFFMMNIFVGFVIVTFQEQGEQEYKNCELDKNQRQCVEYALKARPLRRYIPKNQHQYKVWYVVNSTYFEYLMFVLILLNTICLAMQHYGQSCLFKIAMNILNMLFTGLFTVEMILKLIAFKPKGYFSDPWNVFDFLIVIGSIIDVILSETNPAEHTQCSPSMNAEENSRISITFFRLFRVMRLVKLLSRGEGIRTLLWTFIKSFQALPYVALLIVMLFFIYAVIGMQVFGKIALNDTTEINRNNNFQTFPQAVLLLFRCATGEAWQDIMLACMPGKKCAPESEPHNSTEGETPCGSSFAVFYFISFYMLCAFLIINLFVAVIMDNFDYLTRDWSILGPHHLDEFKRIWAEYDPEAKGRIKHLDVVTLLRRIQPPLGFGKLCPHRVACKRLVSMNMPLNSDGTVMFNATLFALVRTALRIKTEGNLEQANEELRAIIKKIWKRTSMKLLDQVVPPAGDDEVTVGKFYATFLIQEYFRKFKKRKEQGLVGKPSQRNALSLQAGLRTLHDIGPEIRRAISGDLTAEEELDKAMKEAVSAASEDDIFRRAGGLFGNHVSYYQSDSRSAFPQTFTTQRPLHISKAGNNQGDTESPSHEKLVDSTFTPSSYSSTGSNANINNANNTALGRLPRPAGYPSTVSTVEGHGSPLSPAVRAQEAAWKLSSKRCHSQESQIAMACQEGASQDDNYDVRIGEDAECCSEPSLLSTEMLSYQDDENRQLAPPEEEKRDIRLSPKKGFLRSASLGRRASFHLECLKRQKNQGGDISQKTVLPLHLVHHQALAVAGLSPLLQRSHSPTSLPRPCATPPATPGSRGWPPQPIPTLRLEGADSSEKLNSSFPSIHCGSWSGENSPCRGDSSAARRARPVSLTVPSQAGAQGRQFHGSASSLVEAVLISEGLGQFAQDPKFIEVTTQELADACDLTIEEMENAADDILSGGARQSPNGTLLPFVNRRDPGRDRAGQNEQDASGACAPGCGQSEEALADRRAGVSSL
T1 sequence (P13806 27-960 partner limits assumed, other chains not shown): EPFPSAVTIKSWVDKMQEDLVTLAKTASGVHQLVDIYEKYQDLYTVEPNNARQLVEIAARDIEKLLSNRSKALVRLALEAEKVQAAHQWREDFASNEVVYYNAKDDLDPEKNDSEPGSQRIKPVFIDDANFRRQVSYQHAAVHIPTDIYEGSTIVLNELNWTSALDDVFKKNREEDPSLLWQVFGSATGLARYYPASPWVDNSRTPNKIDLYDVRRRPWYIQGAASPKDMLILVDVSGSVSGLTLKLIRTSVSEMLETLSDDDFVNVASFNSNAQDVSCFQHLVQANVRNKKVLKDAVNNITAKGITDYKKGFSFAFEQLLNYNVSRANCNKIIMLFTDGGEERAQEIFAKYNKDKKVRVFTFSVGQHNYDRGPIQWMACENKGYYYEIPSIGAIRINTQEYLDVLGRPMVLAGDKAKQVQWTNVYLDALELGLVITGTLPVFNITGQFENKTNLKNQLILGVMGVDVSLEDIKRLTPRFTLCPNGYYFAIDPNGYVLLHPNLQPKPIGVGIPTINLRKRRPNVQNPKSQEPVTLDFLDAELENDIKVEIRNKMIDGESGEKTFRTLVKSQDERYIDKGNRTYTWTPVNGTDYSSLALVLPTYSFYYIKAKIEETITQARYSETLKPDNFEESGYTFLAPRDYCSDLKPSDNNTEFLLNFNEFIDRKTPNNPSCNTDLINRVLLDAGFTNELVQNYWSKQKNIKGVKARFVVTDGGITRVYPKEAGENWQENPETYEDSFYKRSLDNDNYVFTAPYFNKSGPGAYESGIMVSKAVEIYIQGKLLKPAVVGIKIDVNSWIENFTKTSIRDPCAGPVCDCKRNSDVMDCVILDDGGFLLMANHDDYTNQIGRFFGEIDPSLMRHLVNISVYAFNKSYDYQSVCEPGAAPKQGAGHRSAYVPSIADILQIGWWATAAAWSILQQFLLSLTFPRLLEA
T1 sequence (P13806 961-1106 partner limits assumed, other chains not shown): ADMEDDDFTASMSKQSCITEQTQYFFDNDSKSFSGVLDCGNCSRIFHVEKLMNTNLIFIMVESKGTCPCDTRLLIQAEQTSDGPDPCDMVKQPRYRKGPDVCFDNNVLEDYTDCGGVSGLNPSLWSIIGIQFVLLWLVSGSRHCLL
Protocol: as §1
(B) The inhibition of nitrendipine binding was determined by following the procedures of Bolger et al., Biochem. Biophys. Res. Comm. 104, 1604 (1982) and Ehlert et al., Life Sciences 30, 2191 (1982). Basically, female New Zealand white rabbits (1-2 kg) were sacrificed by cervical dislocation, and the heart was immediately removed, cleaned and chopped into small pieces. The tissue was homogenized in 5× volume of 0.05M Hepes buffer, pH 7.4. The homogenate was centrifuged at 400×g for 10 minutes; the supernatant was recentrifuged at 42,000×g for 90 minutes. The resulting membrane pellet was resuspended (0.7 ml/g weight) in 0.05M Hepes, pH 7.4, and stored at -70° C. until used. Each tube of the binding assay contained ^3 H-nitrendipine (0.05-0.50 nM), buffer, membranes (0.10 ml), and test compound in a total volume of 1.0 ml. After 90 minutes at 4° C., the bound nitrendipine was separated from the unbound by filtration to Whatman GF/C fibers. After rinsing, the filters were dried and counted in a liquid scintillation counter.
Non-specific binding of ^3 H-nitrendipine (that amount bound in the presence of excess unlabelled nitrendipine) was subtracted from the total bound to obtain specifically bound radiolabeled nitrendipine. The amount of specifically bound nitrendipine in the presence of a test compound was compared to that amount bound in the absence of a compound. A percent displacement (or inhibition) was then obtained.

[4] = tested on: quadriceps femoris muscle of one hind leg; assay: Local anesthetic activity: impaired ability of mice to grasp inverted screen after injection into quadriceps femoris muscle; assay type: in vivo, male albino overnight-fasted mice; conditions: Mus musculus, im, 5 min; overnight-fasted mice; 0.05 ml solution or suspension (w/v) injected into quadriceps femoris muscle of one hind leg; observed 5 min later; read-out: Concentration (in %) of Compound Causing Local Anesthetic Activity
Protocol: The local anesthetic activity of the above compounds was tested as follows.
The test compounds were dissolved or suspended in a 0.5% aqueous methylcellulose solution containing 0.4% (v/v) of Tween 80, The polyoxyethylene derivative of a sorbitan ester. Doses of up to 100 mg/kg were administered orally by gagvage tube to groups of three male albino overnight-fasted mice (18 to 24 g) which were observed intermittently for one hour. The mice were gently restrained and 0.05 ml of a 1% (w/v) solution or suspension of the test compound was injected into the quadriceps femoris muscle of one hind leg. Five minutes later, the mice were individually placed on a wire mesh screen. The wire mesh screen was then inverted. […] The response to the test compounds was compared to a similarly treated vehicle control group of mice.

Structure (SMILES): CCCCN(CCCC)CCCOc1ccc(-c2cn3ccccc3n2)cc1 [Example 1, 2-(4-Dibutylaminopropoxyphenyl)imidazo[1,2-a]pyridine]
- inhibition at 10 µM [1]: 54%
- change in vivo at 20 mg/kg [2]: -41%
- IC50 [3]: 2700 nM
- minimal effective concentration [4]: 1000 µg/mL

Structure (SMILES): CCCCN(CCCC)CCCOc1ccc(-c2cn3cccc(C)c3n2)cc1 [Example 2, 2-(4-Dibutylaminopropoxyphenyl)-8-methylimidazo[1,2-a]pyridine]
- inhibition at 10 µM [1]: 61%
- change in vivo at 20 mg/kg [2]: -91%
- IC50 [3]: 600 nM
- minimal effective concentration [4]: 10 µg/mL

Structure (SMILES): CCCCN(CCCC)CCCOc1ccc(-c2cn3cc(Br)ccc3n2)cc1 [Example 3, 2-(4-Dibutylaminopropoxyphenyl)-6-bromoimidazo[1,2-a]pyridine]
- inhibition at 10 µM [1]: 32%
- change in vivo at 20 mg/kg [2]: -18%
- IC50 [3]: 2500 nM
- minimal effective concentration [4]: 10000 µg/mL

Structure (SMILES): CCCCN(CCCC)CCCOc1ccc(-c2cn3ccc(C)cc3n2)cc1 [Example 4, 2-(4-Dibutylaminopropoxyphenyl)-7-methylimidazo[1,2-a]pyridine]
- inhibition at 10 µM [1]: 46%
- IC50 [3]: 6000 nM
- minimal effective concentration [4]: 1000 µg/mL

Structure (SMILES): CCCCN(CCCC)CCCOc1ccc(-c2cn3cccc(O)c3n2)cc1 [Example 5, 2-(4-Dibutylaminopropoxyphenyl)-8-hydroxyimidazo[1,2-a]pyridine]
- minimal effective concentration [4]: 10000 µg/mL

Structure (SMILES): CCCCN(CCCC)CCCOc1ccc(-c2cn3cccc(OCc4ccccc4)c3n2)cc1 [Example 6, 2-(4-Dibutylaminopropoxyphenyl)-8-benzloxyimidazo[1,2-a]pyridine]
- inhibition at 10 µM [1]: 35%
- change in vivo at 20 mg/kg [2]: -16%
- IC50 [3]: > 8000 nM
- minimal effective concentration [4]: 1000 µg/mL

Structure (SMILES): CCCCN(CCCC)CCCOc1ccc(-c2nc3c(C)cccn3c2C)cc1 [Example 7, 2-(4-Dibutylaminopropoxyphenyl)-3,8-dimethylimidazo[1,2-a]pyridine]
- inhibition at 10 µM [1]: 27%
- change in vivo at 20 mg/kg [2]: -54%
- IC50 [3]: 1900 nM
- minimal effective concentration [4]: 1000 µg/mL

Structure (SMILES): CCCCN(CCCC)CCCOc1ccc(C(=O)c2cn3cccc(C)c3n2)cc1 [Example 8, 2-(4-Dibutylaminopropoxybenzoyl)-8-methylimidazo[1,2-a]pyridine]
- inhibition at 10 µM [1]: 58%
- change in vivo at 20 mg/kg [2]: -27%
- IC50 [3]: 600 nM
- minimal effective concentration [4]: 10000 µg/mL

Structure (SMILES): CCCCN(CCCC)CCCOc1ccc(C(=O)c2cn3c(C)cc(C)cc3n2)cc1 [Example 9, 2-(4-Dibutylaminopropoxybenzoyl)-5,7-dimethylimidazo[1,2-a]pyridine]
- inhibition at 10 µM [1]: 39%
- change in vivo at 20 mg/kg [2]: -27%
- IC50 [3]: 2200 nM
- minimal effective concentration [4]: 10000 µg/mL

Structure (SMILES): CCCCN(CCCC)CCCOc1ccc(C(=O)c2cn3ccc(C)cc3n2)cc1 [Example 10, 2-(4-Dibutylaminopropoxybenzoyl)-7-methylimidazo[1,2-a]pyridine]
- inhibition at 10 µM [1]: 42%
- IC50 [3]: 1600 nM
- minimal effective concentration [4]: 10000 µg/mL

Structure (SMILES): CCCCN(CCCC)CCCOc1ccc(C(=O)c2cn3cccc(OCc4ccccc4)c3n2)cc1 [Example 11, 2-(4-Dibutylaminopropoxybenzoyl)-8-benzyloxyimidazo[1,2-]pyridine]
- inhibition at 10 µM [1]: 18%
- IC50 [3]: 2300 nM
- minimal effective concentration [4]: 1000 µg/mL

Structure (SMILES): CCCCN(CCCC)CCCOc1ccc(C(=O)c2cn3cc(Br)ccc3n2)cc1 [Example 12]
- IC50 [3]: 3000 nM
- minimal effective concentration [4]: 10000 µg/mL

Structure (SMILES): CCCCN(CCCC)CCCOc1ccc(C(=O)c2cnc3c(C)cccn23)cc1 [Example 13, 3-(4-Dibutylaminopropoxybenzoyl)-8-methylimidazo[1,2-a]pyridine]
- inhibition at 10 µM [1]: 56%
- change in vivo at 40 mg/kg ([2]; 40 mg/kg): -49%
- IC50 [3]: 530 nM
- minimal effective concentration [4]: 1000 µg/mL

Structure (SMILES): CCCCN(CCCC)CCCOc1ccc(C(=O)c2cnc3ccc(Br)cn23)cc1 [Example 14, 3-(4-Dibutylaminopropoxybenzoyl)-6-bromoimidazo[1,2-a]pyridine]
- inhibition at 10 µM [1]: 62%
- change in vivo at 20 mg/kg [2]: -18%
- IC50 [3]: 200 nM
- minimal effective concentration [4]: 1000 µg/mL
